Source: patent US11135192B2, “Inhibitors for treating diseases characterized by atrial enlargement or remodeling” (Novartis AG, priority 2012, dated 2021)

Columns and labels:
[1] = test system: patients with heart failure with preserved ejection fraction; experiment: Plasma NT-proBNP in the 37-week randomized, double-blind study of LCZ696 compared to valsartan; type: in vivo, human; conditions: for NT-proBNP (pg/ml) at 12 weeks: 12 weeks / NT-proBNP (pg/ml) at 36 weeks: 36 weeks / NT-proBNP (pg/ml) at 12 weeks: Baseline / NT-proBNP (pg/ml) at 36 weeks: Baseline: geometric mean; for NT-proBNP (pg/ml) at 12 weeks: 12 weeks: after 12 weeks of treatment, target LCZ696 200 mg or valsartan 160 mg twice daily; for NT-proBNP (pg/ml) at 36 weeks: 36 weeks: after 36 weeks of treatment; for NT-proBNP (pg/ml) at 12 weeks: Baseline: baseline of patients analysed at 12 weeks; for NT-proBNP (pg/ml) at 36 weeks: Baseline: baseline of patients analysed at 36 weeks
Text: Men and women aged 40 years or older with a left ventricular ejection fraction of 45% or above, and a documented history of heart failure with associated signs or symptoms (dyspnea on exertion, orthopnea, paroxysmal dyspnea, and peripheral edema) are eligible. Patients are required to have an NT-proBNP>400 pg/mL at screening, be on diuretic therapy, and have a systolic blood pressure less than 140 mm Hg, or 160 mm Hg or less if on three or more blood pressure medications at randomization. Additional inclusion criteria include an estimated glomerular filtration rate (eGFR) of at least 30 ml/min/1.73 m^2 at screening (calculated by the Modification of Diet in Renal Disease formula) and a potassium of no more than 5.2 mmol/L.
(§1) The primary study endpoint is the change from baseline in NT-proBNP assessed at 12 weeks, and is analyzed using the last observation after baseline carried forward. Secondary endpoints include changes in echocardiography measures (left ventricular volumes and ejection fraction, left atrial volume, measures of diastolic function), change in blood pressure, as well as change in New York Heart Association Class (NYHA) clinical composite assessment and quality of life (Kansas City Cardiomyopathy Questionnaire).

[2] = test system: patients with heart failure with preserved ejection fraction; experiment: Blood pressure change in the same HF-PEF study; type: in vivo, human; conditions: mean (SD)
Description: as §1
(§2) Echocardiography studies are performed at screening, randomization, at week 12, and week 36 or at end of study or early termination visits. Echocardiograms performed at screening are evaluated by local readers for qualifying information. All other echocardiograms are only performed in patients meeting NT-proBNP entry criterion and are evaluated centrally. For assessment of global ventricular size and function, left ventricular end-diastolic and end-systolic volumes are obtained utilizing the Simpson's rule method and left ventricular ejection fraction is derived in the usual fashion. Maximal left atrial dimension is measured in the parasternal long-axis view, and left atrial volume is assessed with the Simpson's rule method and indexed to body surface area. Measurements are made in triplicate in accordance with the recommendations of the American Society of Echocardiography. Blood pressure and heart rate are measured at all study visits with a calibrated standard sphygmomanometer and appropriate size cuff. The use of concomitant medication is recorded at each study visit.

[3] = test system: patients with heart failure with preserved ejection fraction; experiment: Echocardiography (left atrial and left ventricular measures) in the same HF-PEF study; type: in vivo, human
Description: as §1, §2

[4] = test system: patients with heart failure with preserved ejection fraction
Description: as §1
The clinical composite assessment is based on a composite of the NYHA functional classification, patient global assessment and major adverse clinical events. […] Patients are determined to be worse if at the endpoint visit they experienced a major adverse cardiac event during the double blind treatment or reported worsening of their NYHA class or patient global assessment. Patients are considered unchanged if they are neither improved nor worsened.

[5] = test system: patients with heart failure with preserved ejection fraction; experiment: Safety and tolerability (adverse events, target dose achieved) in the same HF-PEF study
[6] = at 36 weeks, no unit printed in b206 (mm Hg)

| Structure (SMILES) | NT-proBNP (pg/ml) at 12 weeks: 12 weeks [1] | NT-proBNP (pg/ml) at 36 weeks: 36 weeks [1] | NT-proBNP (pg/ml) at 12 weeks: Baseline [1] | NT-proBNP (pg/ml) at 36 weeks: Baseline [1] | diastolic blood pressure reduction ([2]; after 12 weeks of treatment) | systolic blood pressure reduction ([2]; after 12 weeks of treatment) | diastolic blood pressure reduction [2, 6] | systolic blood pressure reduction [2, 6] | LA Volume, Δ from Baseline ([3]; at 36 weeks) | LA dimension, Δ from Baseline ([3]; at 36 weeks) | Relative wall thickness, Δ from Baseline ([3]; at 36 weeks) | LA Volume, Baseline ([3]; baseline) | LA dimension, Baseline ([3]; baseline) | also measured |
| --- | --- | --- | --- | --- | --- | --- | --- | --- | --- | --- | --- | --- | --- | --- |
| CCCCC(=O)N(Cc1ccc(-c2ccccc2-c2nnn[n-]2)cc1)C(C(=O)[O-])C(C)C.CCCCC(=O)N(Cc1ccc(-c2ccccc2-c2nnn[n-]2)cc1)C(C(=O)[O-])C(C)C.CCOC(=O)C(C)CC(Cc1ccc(-c2ccccc2)cc1)NC(=O)CCC(=O)[O-].CCOC(=O)C(C)CC(Cc1ccc(-c2ccccc2)cc1)NC(=O)CCC(=O)[O-].O.O.O.O.O.[Na+].[Na+].[Na+].[Na+].[Na+].[Na+] [LCZ696, trisodium [3-((1S,3R)-1-biphenyl-4-ylmethyl-3-ethoxycarbonyl-1-butylcarbamoyl) propionate-(S)-3′-methyl-2′-(pentanoyl(2″-(tetrazol-5-ylate)biphenyl-4′-ylmethyl)amino)butyrate]hemipentahydrate] | 605 pg/mL | 496 pg/mL | 783 pg/mL | 763 pg/mL | 4.9 (10) mm Hg | 9.3 (SD 14) mm Hg | 5.1 (10.8) | 7.5 (15) | -4.61 mL | −0.15 cm | +0.01% | 65.26 mL | 3.68 cm | reduction in NT-proBNP in patients with diabetes compared with patients without diabetes ([1]; 12 weeks, prespecified subgroup, interaction p=0.02): differentially greater reduction; reduction in NT-proBNP versus valsartan after adjustment for the change in blood pressure ([1]; 12 weeks, p=0.01): greater reduction; NT-proBNP versus baseline ([1]; 36 weeks): remained reduced from baseline; early reduction in NT-proBNP compared with the valsartan group ([1]; after 4 weeks of treatment, p=0.083): not significant; Left atrial volume (result in words) ([3]; after 36 weeks of treatment, p=0.003): reduced significantly; left atrial dimension (result in words) ([3]; after 36 weeks of treatment, p=0.034): reduced significantly; NYHA class improvement between groups ([4]; at 12 weeks, p=0.11): did not differ significantly; NYHA class compared with the valsartan group ([4]; at 36 weeks, p=0.05): improvement |
| CCCCC(=O)N(Cc1ccc(-c2ccccc2-c2nnn[nH]2)cc1)[C@H](C(=O)O)C(C)C [Valsartan, (S)—N-valeryl-N-{[2′-(1H-tetrazole-5-yl)-biphenyl-4-yl]-methyl}-valine, reference compound] | 835 pg/mL | 607 pg/mL | 862 pg/mL | 822 pg/mL | 2.1 (11) mm Hg | 2.9 (17) mm Hg | 0.34 (11.5) | 1.5 (18) | 0.37 mL | −0.08 cm | +0.01% | 68.28 mL | 3.73 cm | LA Volume Index, Δ from Baseline ([3]; at 36 weeks): 0.31 ml/m^2; LV mass index, Δ from Baseline ([3]; at 36 weeks): −1.93 g/m^2; LA Volume Index, Baseline ([3]; baseline): 36.80 ml/m^2; LV mass index, Baseline ([3]; baseline): 79.45 g/m^2; deaths ([5]; among the serious adverse events): two; adverse event atrial fibrillation, number of patients ([5]; during the trial): 8 patients; adverse event atrial fibrillation, percent of patients ([5]; during the trial): 5.3%; one or more serious adverse events, number of patients ([5]; during the trial): 30 patients; one or more serious adverse events, percent of patients ([5]; during the trial): 20%; Angio-oedema, patients ([5]; the LCZ696 patient did not need admission to hospital): no patients |
